The first assay addresses T1, human type 1 glycine transporter (GlyT1) (Homo sapiens, UniProt P48067).
T1 construct: T98G cells (glioma cells) expressing human type 1 glycine transporter (GlyT1) were used; endogenous in cells; host or cells: T98G cells (human glioma cells)
T1 sequence (P48067 1-706): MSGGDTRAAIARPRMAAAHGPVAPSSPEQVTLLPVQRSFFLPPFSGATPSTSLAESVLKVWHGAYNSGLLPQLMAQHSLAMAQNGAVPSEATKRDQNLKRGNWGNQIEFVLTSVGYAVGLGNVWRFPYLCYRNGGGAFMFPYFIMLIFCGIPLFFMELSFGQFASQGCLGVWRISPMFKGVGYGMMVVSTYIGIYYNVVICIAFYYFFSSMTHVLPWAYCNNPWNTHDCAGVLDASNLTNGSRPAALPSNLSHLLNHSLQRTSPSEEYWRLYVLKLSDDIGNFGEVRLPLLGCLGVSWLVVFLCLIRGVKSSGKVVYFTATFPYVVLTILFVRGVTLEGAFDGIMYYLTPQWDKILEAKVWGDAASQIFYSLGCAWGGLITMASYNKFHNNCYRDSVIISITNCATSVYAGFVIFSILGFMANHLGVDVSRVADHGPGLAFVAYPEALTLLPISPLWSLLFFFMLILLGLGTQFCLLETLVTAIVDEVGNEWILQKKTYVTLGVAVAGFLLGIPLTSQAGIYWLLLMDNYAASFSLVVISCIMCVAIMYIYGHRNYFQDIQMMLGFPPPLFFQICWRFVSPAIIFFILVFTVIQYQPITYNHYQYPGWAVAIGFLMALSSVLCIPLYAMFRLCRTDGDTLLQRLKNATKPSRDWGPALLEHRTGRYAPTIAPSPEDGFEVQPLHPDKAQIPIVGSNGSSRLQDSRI
Description: Glycine uptake inhibition experiment ([3H] glycine uptake in T98G cells expressing GlyT1). The format is cell-based.
Settings: not given
Summed up:
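T98G glioma cells expressing human GlyT1 were pretreated 10 min with compound in HEPES buffer pH 7.4 (0.2% BSA), then incubated with compound plus 250 nM final [3H]glycine for 15 min at room temperature. Intracellular radioactivity was counted after NaOH lysis; 10 μM ALX5407 defined non-specific uptake. IC50 came from 10^−9–10^−5 M curves.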
One may read the IC50 as the concentration needed to halve the response being measured. A low value points to inhibition by little substance. Compound `C[C@H](O)c1cccc2c1C(F)(F)C(=O)N2Cc1ccc(C(F)(F)F)c(C#N)n1` [Compound 216, 6-({3,3-difluoro-4-[(1S)-1-hydroxyethyl]-2-oxo-2,3-dihydro-1H-indol-1-yl}methyl)-3-(trifluoromethyl) pyridine-2-carbonitrile] had an IC50 of 9.4 nM.

On to `C[C@H](O)c1cccc2c1C(F)(F)C(=O)N2Cc1ncccc1Cl` [Compound 206, 1-[(3-chloropyridin-2-yl)methyl]-3,3-difluoro-4-[(1S)-1-hydroxyethyl]-1,3-dihydro-2H-indol-2-one], for which the IC50 was 60 nM.

With `C[C@H](O)c1cccc2c1C(F)(F)C(=O)N2Cc1ncccc1C#N` [Compound 213, 2-({3,3-difluoro-4-[(S)-1-hydroxyethyl]-2-oxo-2,3-dihydro-1-indol-1-yl}methyl)pyridine-3-carbonitrile], half-maximal inhibition (IC50) was put at 40 nM.

In turn, `C[C@H](O)c1cccc2c1C(F)(F)C(=O)N2Cc1ccc(-n2nccn2)nc1` [Compound 196, 3,3-difluoro-4-[(1S)-1-hydroxyethyl]-1-{[6-(2H-1,2,3-triazol-2-yl)pyridin-3-yl]methyl)-1,3-dihydro-2H-indol-2-one] came in with an IC50 of 4200 nM.

The compound `C[C@H](O)c1cccc2c1C(F)(F)C(=O)N2Cc1cccnc1Cl` [Compound 210, 1-[(2-chloropyridin-3-yl)methyl]-3,3-difluoro-4-[(1S)-1-hydroxyethyl]-1,3-dihydro-2H-indol-2-one] displayed an IC50 of 680 nM.

In turn, `C[C@H](O)c1cccc2c1C(F)(F)C(=O)N2Cc1ccc(F)c(Cl)n1` [Compound 237, 1-[(6-chloro-5-fluoropyridin-2-yl)methyl]-3,3-difluoro-4-[(1S)-1-hydroxyethyl]-1,3-dihydro-2H-indol-2-one] displayed an IC50 of 2.9 nM.

Consider `C[C@H](O)c1cccc2c1C(F)(F)C(=O)N2Cc1ccc(Br)nc1` [Compound 190, 1-[(6-bromopyridin-3-yl)methyl]-3,3-difluoro-4-[(1S)-1-hydroxyethyl]-1,3-dehydro-2H-indol-2-one], for which the IC50 was determined as 51 nM.

For the compound `Cn1c(CN2C(=O)C(F)(F)c3c(C(O)C(F)F)cccc32)nc2ccccc21` (single isomer, unassigned) [Compound 170, 4-(2,2-difluoro-1-hydroxyethyl)-3,3-difluoro-1-[(1-methyl-1H-benzimidazol-2-yl)methyl]-1,3-dihydro-2H-indol-2-one], 110 nM corresponded to half-maximal inhibition (IC50).

Turning to `C[C@H](O)c1cccc2c1C(F)(F)C(=O)N2Cc1ncc(Cl)cc1C#N` [Compound 242], the IC50 was found to be 83 nM.

For `COc1cc(CN2C(=O)C(F)(F)c3c(C(O)C(F)F)cccc32)ccn1` (single isomer, unassigned) [Compound 165, 4-(2,2-difluoro-1-hydroxyethyl)-3,3-difluoro-1-[(2-methoxypyridin-4-yl)methyl]-1,3-dihydro-2H-indol-2-one], the IC50 is 48 nM.

Turning to `C[C@H](O)c1cccc2c1C(F)(F)C(=O)N2Cc1ccc(Cl)nn1` [Compound 204, 1-[(6-chloropyridazin-3-yl)methyl]-3,3-difluoro-4-[(1S)-1-hydroxyethyl]-1,3-dihydro-2H-indol-2-one], half-maximal inhibition (IC50) was put at 110 nM.

`C[C@H](O)c1cccc2c1C(F)(F)C(=O)N2Cc1ncc(F)cc1Br` [Compound 226, 1-[(3-bromo-5-fluoropyridin-2-yl)methyl]-3,3-difluoro-4-[(1S)-1-hydroxyethyl]-1,3-dihydro-2H-indol-2-one] displayed an IC50 of 40 nM.

As for `COc1cccc(CN2C(=O)C(F)(F)c3c(C(O)C(F)F)cccc32)n1` (single isomer, unassigned) [Compound 256, 4-(2,2-difluoro-1-hydroxyethyl)-3,3-difluoro-1-[(6-methoxypyridin-2-yl)methyl)-1,3-dihydro-2H-indol-2-one], the midpoint of inhibition, the IC50, lay at 9.6 nM.

The compound `C[C@H](O)c1cccc2c1C(F)(F)C(=O)N2Cc1cc(C(F)(F)F)c(Cl)cn1` [Compound 212, 1-{[5-chloro-4-(trifluoromethyl)pyridin-2-yl]methyl}-3,3-difluoro-4-[(1S)-1-hydroxyethyl]-1,3-dihydro-2H-indol-2-one] gave an IC50 of 8.2 nM.

Compound `COc1cc(CN2C(=O)C(F)(F)c3c(C(O)C(F)F)cccc32)cnc1F` (single isomer, unassigned) [Compound 273, 4-(2,2-difluoro-1-hydroxyethyl)-3,3-difluoro-1-[(6-fluoro-5-methoxypyridin-3-yl)methyl]-1,3-dihydro-2H-indol-2-one] displayed an IC50 of 140 nM.

Still in this assay, the particulars now being: glycine uptake inhibition.
With `CC(c1cccc(Cl)n1)N1C(=O)C(F)(F)c2c([C@H](C)O)cccc21` (stereo partly drawn) [Compound 51, 1-[1-(6-chloropyridin-2-yl)ethyl]-3,3-difluoro-4-[(1S)-1-hydroxyethyl]-1,3-dihydro-2H-indol-2-one], the IC50 amounted to 260 nM.

As to `C[C@H](O)c1cccc2c1C(F)(F)C(=O)N2Cc1cncc(-n2nccn2)c1` [Compound 84, 3,3-difluoro-4-[(1S)-1-hydroxyethyl]-1-{[5-(2H-1,2,3-triazol-2-yl)pyridin-3-yl]methyl}-1,3-dihydro-2H-indol-2-one], the IC50 came to 35 nM.

Compound `C[C@H](O)c1cccc2c1C(F)(F)C(=O)N2Cc1cc(C(F)F)ccn1` [Compound 122, 1-{[4-(difluoromethyl)pyridin-2-yl]methyl}-3,3-difluoro-4-{(1S)-1-hydroxyethyl]-1,3-dihydro-2H-indol-2-one] registered an IC50 of 220 nM.

In turn, `O=C1N(Cc2cncc(Cl)c2)c2cccc(C(O)C(F)F)c2C1(F)F` (single isomer, unassigned) [Compound 120, 1-[(5-chloropyridin-3-yl)methyl]-4-(2,2-difluoro-1-hydroxyethyl)-3,3-difluoro-1,3-dihydro-2H-indol-2-one] gave an IC50 of 57 nM.

Regarding `CC(c1cccc(Cl)n1)N1C(=O)C(F)(F)c2c([C@H](C)O)cccc21` (single isomer, unassigned) [Compound 52], 330 nM corresponded to half-maximal inhibition (IC50).

As to `C[C@H](O)c1cccc2c1C(F)(F)C(=O)N2Cc1ccncc1` [Compound 64, 3,3-difluoro-4-[(1S)-1-hydroxyethyl]-1-(pyridin-4-ylmethyl)-1,3-dihydro-2H-indol-2-one], the half-inhibitory concentration (IC50) came out at 390 nM.

`COc1ccnc(CN2C(=O)C(F)(F)c3c([C@H](C)O)cccc32)c1` [Compound 66, 3,3-difluoro-4-[(1S)-1-hydroxyethyl]-1-[(4-methoxypyridin-2-yl)methyl]-1,3-dihydro-2H-indol-2-one] returned an IC50 of 130 nM.

`C[C@H](O)c1c(Cl)ccc2c1C(F)(F)C(=O)N2Cc1cncc(Cl)c1` [Compound 90, 5-chloro-1-[(5-chloropyridin-3-yl)methyl]-3,3-difluoro-4-[(1S)-1-hydroxyethyl]-1,3-dihydro-2H-indol-2-one] yielded an IC50 of 46 nM.

As to `O=C1N(Cc2cncc(Cl)c2)c2ccc(F)c(C(O)C(F)F)c2C1(F)F` (single isomer, unassigned) [Compound 135, 1-[(5-chloropyridin-3-yl)methyl]-4-(2,2-difluoro-1-hydroxyethyl)-3,3,5-trifluoro-1,3-dihydro-2H-indol-2-one], the IC50 was 57 nM.

On to `C[C@H](O)c1cccc2c1C(F)(F)C(=O)N2Cc1cccnc1` [Compound 61, 3,3-difluoro-4-[(1S)-1-hydroxyethyl]-1-(pyridin-3-ylmethyl)-1,3-dihydro-2H-indol-2-one], for which it took 420 nM to reach half-maximal inhibition (IC50).

As to `O=C1N(Cc2cc(F)ccn2)c2cccc(C(O)C(F)F)c2C1(F)F` (single isomer, unassigned) [Compound 154, 4-(2,2-difluoro-1-hydroxyethyl)-3,3-difluoro-1-[(4-fluoropyridin-2-yl)methyl]-1,3-dihydro-2H-indol-2-one], it took 260 nM to reach half-maximal inhibition (IC50).

In turn, `C[C@H](O)c1cccc2c1C(F)(F)C(=O)N2Cc1nc2cnccc2c(=O)n1C` [Compound 111, 2-({3,3-difluoro-4-[(1s)-1-hydroxyethyl]-2-oxo-2,3-dihydro-1H-indol-1-yl}methyl)-3-methylpyrido[3,4-d]pyrimidin-4(3H)-one] showed an IC50 of 130 nM.

In turn, `O=C1N(Cc2cncc(Cl)c2)c2cccc(C(O)C(F)(F)F)c2C1(F)F` (single isomer, unassigned) [Compound 22, 1-[(5-chloropyridin-3-yl)methyl]-3,3-difluoro-4-(2,2,2-trifluoro-1-hydroxyethyl)-1,3-dihydro-2H-indol-2-one] returned an IC50 of 1900 nM.

Compound `O=C1N(Cc2cncc(Cl)n2)c2cccc([C@@H](O)C(F)(F)F)c2C1(F)F` [Compound 47, 1-[(6-chloropyrazin-2-yl)methyl]-3,3-difluoro-4-[(1R)-2,2,2-trifluoro-1-hydroxyethyl]-1,3-dihydro-2H-indol-2-one] gave an IC50 of 40 nM.

Take `C[C@H](O)c1cccc2c1C(F)(F)C(=O)N2Cc1ccnc(C(F)(F)F)c1` [Compound 86, 3,3-difluoro-4-[(1S)-1-hydroxyethyl]-1-{[2-(trifluoromethyl)pyridin-4-yl]methyl}-1,3-dihydro-2H-indol-2-one]: half-maximal inhibition (IC50) was put at 24 nM.

These data come from patent US20160159814A1, “GLYCINE TRANSPORTER INHIBITOR” (TAISHO PHARMACEUTICAL CO., LTD., priority 2013, published 2016).
